Columns and labels:
hippocampi of mice = experiment: Stereotaxic injection into mouse hippocampus, quantitative real-time PCR; assay type: in vivo; conditions: estimated 1 nM intra-hippocampal concentration, 48 hours after injection
Method: Ten week old B6/SJL mice were stereotaxically injected on the right side of their hippocampi with sAPPα, a 10 amino acid fragment, or a scrambled 10-mer to an estimated 1 nM intra-hippocampal concentration. The contralateral sides were injected with artificial cerebrospinal fluid. Each injection consisted of […] of solution delivered over the period of 10 minutes. 48 hours after surgery, the mice were perfused with cold PBS, and their hippocampi were dissected and stored in stabilizing solution for subsequent RNA extraction.
RNA was extracted from hippocampal samples, DNase treated, and reverse transcribed. The cDNA was then used in quantitative real-time PCR performed with SYBR green on the Roche LightCycler system. Portions of each RNA sample were also used in no-RT traditional PCR reactions to validate the absence of DNA contamination.

human cortical slices = experiment: TUNEL/NeuN staining of human cortical slices; assay type: cell-based
Method: β-amyloid1-42 and reverse Aβ (Aβ42-1) were obtained from BACHEM (Torrance, Calif.). These peptides were dissolved in 0.1% NH3OH at 222 μM. For treatments, Aβ or reverse Aβ was aggregated at 50 μM in Neurobasal media with B-27 supplement and 0.5 mM glutamine at 37° C. for 24 hours. Then, the slice culture media was removed, and the slices were treated with 1 mL of 25 μM or 50 μM Aβ, reverse Aβ, or vehicle for 24 hour. Human TTR (Calbiochem) was added to slices together with the Aβ treatment at final concentrations of 0.03, 0.3, and 3 μM TTR. sAPPα was obtained from Sigma (St. Louis, Mo.). Unless otherwise stated, all sAPPα treatments were performed at 1 nM 48 hours prior to the addition of Aβ. The 10 amino acid fragment of the carboxyl-terminal region of sAPPα (592-601 of APP695; SEVKMDAEFR was added according to the same protocol for sAPPα. Because a variable amount of tissue was obtained from each patient, not all treatments were performed on all patients.
Cortical slice cryosections were stained with terminal deoxynucleotidyl transferase-mediated, dUTP nick end labeling (TUNEL) and with an anti-NeuN antibody. Cells with DNA fragmentation were determined by the terminal deoxynucleotidyl transferase incorporation of fluorescein isothiocyanate (FITC)-12-dUTP into DNA (In Situ Cell Death Detection kit, Roche Biochem, Indianapolis, Ind.). At least 3 random images per slice were generated by confocal analysis at 600× magnification. The number of TUNEL positive, NeuN positive, and both TUNEL and NeuN positive cells were then quantified.

[1] = Aβ treatment, 1 subject, FIG. 6B

Substance	Expression of IGFBP2 in treated vs control side of hippocampus (hippocampi of mice; FIG. 8)	Expression of IGF2 in treated vs control side of hippocampus (hippocampi of mice; FIG. 10)	DNA strand breaks as indicated by TUNEL (human cortical slices; 50 μM Aβ)	Percent of neurons that were TUNEL positive (% TUNEL/NeuN) (human cortical slices; [1])	Percent of total TUNEL positive cells (% TUNEL) (human cortical slices; [1])
SEVKMDAEFR	induced an increase in expression	induced an increase in expression			
β-amyloid1-42 [Aβ]			resulted in DNA strand breaks	increased	increased
